Earlier results as cited in patent US20220257490A1, “METHOD FOR DYEING KERATINOUS MATERIAL, COMPRISING THE USE OF AN ORGANOSILICON COMPOUND, A COLORED EFFECT PIGMENT AND A FILM-FORMING POLYMER IV” (Henkel AG & Co. KGaA, priority 2019, published 2022).

Conditions: 25° C.

Row | solubility in water (in words) | SMILES | solubility in water
1 |  | O=S(=O)([O-])c1ccc(N=Nc2c(O)ccc3ccccc23)cc1.[Na+] [Acid Orange 7, sodium salt of 4-[(2-hydroxy-1-naphthyl)azo]benzene sulphonate] | more than 7 g/L
2 |  | Nc1cc(S(=O)(=O)[O-])cc2cc(S(=O)(=O)[O-])c(N=Nc3ccccc3)c(O)c12.[Na+].[Na+] [Acid Red 33, disodium salt of 5-amino-4-hydroxy-3-(phenylazo)-naphthalene-2,7-disulphonate] | 2500 µg/mL
3 |  | O=C([O-])c1c(Cl)c(Cl)c(Cl)c(Cl)c1-c1c2c(Br)cc(=O)c(Br)c-2oc2c(Br)c(O)cc(Br)c12.O=C([O-])c1c(Cl)c(Cl)c(Cl)c(Cl)c1-c1c2c(Br)cc(=O)c(Br)c-2oc2c(Br)c(O)cc(Br)c12.[Na+].[Na+] [Acid Red 92, disodium salt of 3,4,5,6-tetrachloro-2-(1,4,5,8-tetrabromo-6-hydroxy-3-oxoxanthen-9-yl)benzoic acid] | greater than 10 g/L
4 | highly soluble in water | O=C([O-])C1=NN(c2ccc(S(=O)(=O)[O-])cc2)C(=O)C1N=Nc1ccc(S(=O)(=O)[O-])cc1.[Na+].[Na+].[Na+] (stereo not shown) [Acid Yellow 23, trisodium salt of 4,5-dihydro-5-oxo-1-(4-sulfophenyl)-4-((4-sulfophenyl)azo)-1H-pyrazole-3-carboxylic acid] | 
